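Test compounds were applied to cells in 96-well plates for 48 hours at 5 doses. The concentration for 50% growth inhibition is given as GI50. TGI denotes the concentration required for complete inhibition of growth.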
Experiments:
Assay in all cases: inhibition of tumour cell growth, NCI panel, 48 h
[1] = tested on: EKVX NSCLC
[2] = tested on: NCI-H226 lung
[3] = tested on: SN12C renal
[4] = tested on: KM12 colon
[5] = tested on: NCI-H23 lung
[6] = tested on: HOP-92 NSCLC
[7] = tested on: MALME-3M melanoma
[8] = tested on: RPMI-8226 leukemia
[9] = tested on: DU-145 prostate
[10] = tested on: BT-549 breast

## Cc1cc(C)nc(NS(=O)(=O)c2ccc(NC(=O)c3cccn4c(=O)c5ccccc5nc34)cc2)n1
[1]
  TGI: 99.7 µM
[2]
  TGI: 97.3 µM
[3]
  TGI: > 100 µM
[4]
  TGI: > 100 µM
[5]
  TGI: > 100 µM

## Nc1ccc(C(=O)N/C(=C\c2cccc([N+](=O)[O-])c2)c2nc3ccc(Cl)cc3[nH]2)cc1
[1]
  TGI: > 100 µM
[6]
  TGI: 75.8 µM
[3]
  TGI: > 100 µM
[7]
  TGI: > 100 µM
[4]
  TGI: > 100 µM
[5]
  TGI: > 100 µM

## Nc1n[nH]c2ccc([C@@H]3Nc4cc5[nH]ncc5cc4[C@H]4C5CCC(C5)[C@@H]34)cc12 (stereo partly drawn)
[1]
  GI50: 0.485 µM
  TGI: > 100 µM
[2]
  GI50: 1.17 µM
  TGI: 46.2 µM
[8]
  GI50: 0.354 µM
  TGI: 12.6 µM
[6]
  GI50: 4.59 µM
  TGI: > 46.2 µM
[3]
  GI50: 0.525 µM
  TGI: > 82.9 µM
[9]
  GI50: 0.391 µM
  TGI: > 100 µM
[10]
  GI50: 0.725 µM
  TGI: > 46 µM
[4]
  GI50: 0.393 µM
  TGI: 19.1 µM
[5]
  GI50: 0.472 µM
  TGI: > 71.7 µM

## CC(=O)C12C[C@](C#N)(N3CCCCCC3)C1C=Cc1ccccc12 (stereo partly drawn)
[1]
  TGI: > 100 µM
[2]
  TGI: > 100 µM
[8]
  TGI: > 100 µM
[3]
  TGI: > 100 µM
[9]
  TGI: > 100 µM
[10]
  TGI: > 100 µM
[4]
  TGI: > 100 µM
[5]
  TGI: > 100 µM

## C/C(=C\Cc1cc(O)ccc1O)CCc1c(C)c(O)c(O)c(C=O)c1C
[1]
  TGI: > 100 µM
[2]
  TGI: 98 µM
[8]
  TGI: 80.3 µM
[6]
  TGI: 34.7 µM
[3]
  TGI: 77.8 µM
[7]
  TGI: 80.2 µM
[4]
  TGI: 44.3 µM
[5]
  TGI: 44.7 µM

## CCN(CC)CCC(CNc1c(C)cnc2cc(Cl)ccc12)c1ccc(Cl)cc1 (stereo not drawn)
[1]
  GI50: 5.46 µM
  TGI: 19.5 µM
[2]
  GI50: 16 µM
  TGI: 31.5 µM
[8]
  GI50: 2.96 µM
  TGI: 13.6 µM
[3]
  GI50: 12.8 µM
  TGI: 28.8 µM
[9]
  GI50: 12.8 µM
  TGI: 26 µM
[10]
  GI50: 11.2 µM
  TGI: 24.9 µM
[4]
  GI50: 11 µM
  TGI: 25.3 µM
[5]
  GI50: 10.3 µM
  TGI: 24.1 µM

## COc1ccc(-c2ccc(/C=N/n3c(COc4ccccc4Cl)n[nH]c3=S)o2)c([N+](=O)[O-])c1
[2]
  GI50: 20.1 µM
  TGI: 50.9 µM
[8]
  GI50: 24.9 µM
  TGI: 92.9 µM
[3]
  GI50: 26.4 µM
  TGI: 82.4 µM
[4]
  GI50: 20.9 µM
  TGI: 49.5 µM
[5]
  GI50: 18.5 µM
  TGI: 41.8 µM

## CC1=C[C@@H](C)C[C@]2(C)CC[C@H](O2)[C@]23CC[C@](C)(C[C@H](O2)[C@@H]2O[C@@](C)(CC2=O)[C@@H](O)[C@H]2CC[C@@]4(CCC[C@@H](O4)[C@H](C)C(=O)O[C@H]4C[C@H]([C@]5(O)OCC[C@H](C)[C@@H]5O)O[C@H]4C=C1)O2)O3
[1]
  TGI: 0.128 µM
[6]
  TGI: 0.00517 µM
[9]
  TGI: > 10 µM
[10]
  TGI: 0.0103 µM
[4]
  TGI: > 10 µM
[5]
  TGI: 0.0826 µM

## O=C(Nc1ccccc1Cl)c1cccc(NC2=C(Cl)C(=O)N(Cc3ccccc3)C2=O)c1
[1]
  GI50: 88.3 µM
  TGI: > 100 µM
[2]
  GI50: 4.45 µM
  TGI: 46.4 µM
[8]
  GI50: 3.1 µM
  TGI: 20.6 µM
[6]
  GI50: 15 µM
  TGI: > 100 µM
[9]
  GI50: 28.5 µM
  TGI: > 100 µM
[10]
  GI50: 22.5 µM
  TGI: > 100 µM
[4]
  GI50: 0.0371 µM
  TGI: 9.86 µM
[5]
  GI50: 50.5 µM
  TGI: > 100 µM

## O=C(O)[C@@H](NS(=O)(=O)c1ccc2ccccc2c1)c1ccccc1
[8]
  TGI: > 100 µM
[6]
  TGI: > 100 µM
[3]
  TGI: > 100 µM
[7]
  TGI: > 100 µM
[5]
  TGI: > 100 µM

— PubChem BioAssay (NCI)
